Results published in publication PMC7933985 (The Journal of General Physiology, 2021).
Residue numbers refer to the chain shown, from its start. Where two headings read alike, the source gives them in different places.

How the values were obtained:
[1] = target: T1, MEC-4d (Caenorhabditis elegans, UniProt P24612, A713T); assay: Two-electrode voltage clamp of oocytes coexpressing MEC-2 and MEC-4d; type: cell-based, C. elegans; details: for effect on MEC-4d current: 30 µM
T1 sequence (P24612 1-768 A713T): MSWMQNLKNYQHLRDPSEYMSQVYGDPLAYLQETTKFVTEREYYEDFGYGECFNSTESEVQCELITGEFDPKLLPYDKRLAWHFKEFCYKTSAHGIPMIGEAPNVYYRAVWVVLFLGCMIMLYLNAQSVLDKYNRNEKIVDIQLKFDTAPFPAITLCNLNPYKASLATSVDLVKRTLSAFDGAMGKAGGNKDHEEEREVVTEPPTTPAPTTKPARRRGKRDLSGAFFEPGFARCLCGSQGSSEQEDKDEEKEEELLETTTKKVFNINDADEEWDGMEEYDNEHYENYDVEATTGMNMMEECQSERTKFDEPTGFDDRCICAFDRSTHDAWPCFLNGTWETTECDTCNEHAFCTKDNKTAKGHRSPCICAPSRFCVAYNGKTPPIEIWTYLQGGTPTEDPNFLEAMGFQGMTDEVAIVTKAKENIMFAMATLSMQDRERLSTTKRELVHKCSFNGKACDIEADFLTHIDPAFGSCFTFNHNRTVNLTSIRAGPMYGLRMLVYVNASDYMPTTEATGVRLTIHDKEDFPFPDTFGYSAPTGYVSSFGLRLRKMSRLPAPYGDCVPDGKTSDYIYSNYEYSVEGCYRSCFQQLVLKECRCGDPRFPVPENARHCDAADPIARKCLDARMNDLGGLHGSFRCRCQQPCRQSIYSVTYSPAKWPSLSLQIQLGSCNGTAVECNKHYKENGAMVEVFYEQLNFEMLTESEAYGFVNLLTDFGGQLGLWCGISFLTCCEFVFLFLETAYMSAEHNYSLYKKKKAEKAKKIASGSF

[2] = target: T2, UNC-8d (Caenorhabditis elegans, UniProt Q21974, G387E); assay: Two-electrode voltage clamp of oocytes coexpressing MEC-2 and UNC-8d; type: cell-based, C. elegans; details: for effect on UNC-8d current: 30 µM; for IC50: control saline (divalent-containing solution)
T2 sequence (Q21974 1-737 isoform Q21974-4 G347E): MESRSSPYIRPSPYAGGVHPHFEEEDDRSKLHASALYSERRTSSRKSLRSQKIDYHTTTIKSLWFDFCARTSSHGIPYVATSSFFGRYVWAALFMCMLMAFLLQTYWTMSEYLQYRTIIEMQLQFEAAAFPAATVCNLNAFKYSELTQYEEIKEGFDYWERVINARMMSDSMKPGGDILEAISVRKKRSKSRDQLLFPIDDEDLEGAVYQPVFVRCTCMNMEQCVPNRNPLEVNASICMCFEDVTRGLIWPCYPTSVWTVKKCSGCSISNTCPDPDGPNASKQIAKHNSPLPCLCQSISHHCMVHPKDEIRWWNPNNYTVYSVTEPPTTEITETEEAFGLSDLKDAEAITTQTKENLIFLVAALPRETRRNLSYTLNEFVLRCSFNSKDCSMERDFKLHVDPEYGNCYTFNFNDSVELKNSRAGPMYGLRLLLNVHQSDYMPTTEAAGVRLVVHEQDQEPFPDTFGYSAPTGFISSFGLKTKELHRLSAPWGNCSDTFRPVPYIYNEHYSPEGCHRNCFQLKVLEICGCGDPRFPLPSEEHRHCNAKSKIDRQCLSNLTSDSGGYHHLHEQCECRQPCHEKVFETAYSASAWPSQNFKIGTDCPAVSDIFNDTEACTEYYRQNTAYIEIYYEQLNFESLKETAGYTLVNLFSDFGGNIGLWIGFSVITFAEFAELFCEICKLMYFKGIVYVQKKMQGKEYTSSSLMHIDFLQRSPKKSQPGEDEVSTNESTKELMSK

[3] = system: DEGT-1d alone; assay: Two-electrode voltage clamp of oocytes expressing DEGT-1d alone; type: cell-based, C. elegans; details: 300 µM amiloride, −85 mV, DEGT-1 alone without MEC-2
[4] = system: DEGT-1d; assay: Two-electrode voltage clamp of oocytes coexpressing MEC-2 and DEGT-1d; type: cell-based, C. elegans; details: for ΔIdrug, change in current compared with uninjected oocytes: −85 mV, coexpressed with MEC-2; for effect on DEGT-1d current: 30 µM
[5] = target: T3, MEC-2 alone (Caenorhabditis elegans, UniProt Q27433); assay: Two-electrode voltage clamp of oocytes expressing MEC-2 alone; type: cell-based, C. elegans; details: 300 µM amiloride, −85 mV
T3 sequence (Q27433 1-481): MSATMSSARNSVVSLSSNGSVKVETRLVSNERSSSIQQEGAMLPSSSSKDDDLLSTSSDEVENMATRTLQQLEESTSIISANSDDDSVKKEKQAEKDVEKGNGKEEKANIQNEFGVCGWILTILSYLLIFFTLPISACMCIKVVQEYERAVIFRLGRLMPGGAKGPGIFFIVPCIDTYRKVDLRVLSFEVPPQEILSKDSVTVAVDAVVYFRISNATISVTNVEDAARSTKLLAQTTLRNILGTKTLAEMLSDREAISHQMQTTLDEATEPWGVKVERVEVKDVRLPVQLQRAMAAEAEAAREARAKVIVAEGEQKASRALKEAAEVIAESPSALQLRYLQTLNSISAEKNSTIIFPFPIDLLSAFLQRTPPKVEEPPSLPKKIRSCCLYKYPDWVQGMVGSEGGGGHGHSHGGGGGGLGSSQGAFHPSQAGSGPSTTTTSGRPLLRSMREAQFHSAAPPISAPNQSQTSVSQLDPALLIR

[6] = target: T4, MEC-4d(E704K) (Caenorhabditis elegans, UniProt P24612, A713T/E704K); assay: cell-based; set-up: species or system C. elegans; details: for drug-induced change in current (Idrug) compared with absence of drug: 700 µM drug, −85 mV
T4 sequence (P24612 1-768 E704K/A713T): T1 sequence (P24612 1-768 A713T) with E704K

[7] = target: T2, UNC-8d; details: −100 mV, ref Miller-Fleming et al., 2016, cited from earlier work
[8] = system: uninjected oocytes; assay: Two-electrode voltage clamp of uninjected; type: cell-based, Xenopus laevis; details: 30 µM
[9] = system: rASIC1a; details: allosteric effect; ref Lynagh et al., 2017; cited from earlier work

## N=C(N)NC(=O)c1nc(Cl)c(N)nc1N [Amiloride, amiloride]
[1]
  effect on MEC-4d current: inhibited
[2]
  effect on UNC-8d current: inhibited
[3]
  ΔIdrug, change in current compared with uninjected oocytes: 0.0288 µA
[4]; 100 µM drug
  ΔIdrug, change in current compared with uninjected oocytes: 0.111 µA
[4]; 300 µM drug
  ΔIdrug, change in current compared with uninjected oocytes: 0.0623 µA
[5]
  ΔIdrug, change in current compared with uninjected oocytes: −0.0067 µA

## CC(=O)Oc1ccccc1C(=O)O [Aspirin, aspirin]
[1]
  EC50: 79.9 ± 3.7 µM
  voltage dependence of potentiation (EC50 vs voltage): Neither drug showed evidence of voltage dependence
[6]
  EC50: 179 ± 56 µM
  drug-induced change in current (Idrug) compared with absence of drug: 6.53 µA

## N=C(N)c1ccccc1 [Benzamidine, benzamidine]
[2]
  effect on UNC-8d current: inhibited

## NC(=NCc1ccccc1)NC(=O)c1nc(Cl)c(N)nc1N [Benzamil, benzamil]
[1]
  effect on MEC-4d current: inhibited
[7]; divalent-containing solution
  IC50: 47 µM
[7]; divalent-free solution
  IC50: 119 µM
[2]
  effect on UNC-8d current: inhibited
[2]; IC50, −60 mV
  IC50: 14.8 ± 1.6 µM
[2]; IC50, −100 mV
  IC50: 15.1 µM
[2]; voltages between −100 and −20 mV
  voltage dependence of block: not voltage-dependent

## O=C(O)Cc1ccccc1Nc1c(Cl)cccc1Cl [Diclofenac, diclofenac]
[2]
  effect on UNC-8d current: partially inhibit

## CCN(c1nc(N)c(C(=O)NC(=N)N)nc1Cl)C(C)C [EIPA, 5-(N-ethyl-N-isopropyl)amiloride]
[1]
  IC50: 3.06 ± 0.6 µM
  voltage dependence of apparent affinity (block): insensitive to voltage
  effect on MEC-4d current: inhibited
[2]
  effect on UNC-8d current: inhibited
[8]
  effect on current in control (uninjected) oocytes: no detectable effect
[4]
  effect on DEGT-1d current: no detectable effect

## CC(C(=O)O)c1ccc(-c2ccccc2)c(F)c1 (stereo not shown) [Flurbiprofen, flurbiprofen]
[2]
  effect on UNC-8d current: partially inhibit
[4]
  effect on DEGT-1d current: partially inhibit

## CC(C)Cc1ccc(C(C)C(=O)O)cc1 (stereo not shown) [Ibuprofen, ibuprofen]
[1]
  voltage dependence of potentiation (EC50 vs voltage): Neither drug showed evidence of voltage dependence
  effect on MEC-4d current: seems to potentiate
[9]
  effect on rASIC1a: inhibited
[2]
  effect on UNC-8d current: modestly inhibits
[8]
  effect on current in control (uninjected) oocytes: little if any effect
[4]
  effect on DEGT-1d current: modestly inhibits
[4]; 100 µM drug
  ΔIdrug, change in current compared with uninjected oocytes: 0.19 µA
[4]; 300 µM drug
  ΔIdrug, change in current compared with uninjected oocytes: 0.322 µA
[6]
  drug-induced change in current (Idrug) compared with absence of drug: 10.7 µA

## NC(=Nc1ccccc1)NC(=O)c1nc(Cl)c(N)nc1N [Phenamil, phenamil]
[1]
  effect on MEC-4d current: inhibited
[2]
  effect on UNC-8d current: inhibited

## CC(C)Cc1ccc([C@H](C)C(=O)O)cc1 [S-Ibu, S-ibuprofen]
[1]; 30 µM ibuprofen isomer
  difference in drug-sensitive current compared with uninjected oocytes (ΔIdrug): 4.7 µA

## O=C(O)c1ccccc1O [Salicylic acid, salicylic acid]
[4]
  effect on DEGT-1d current: partially inhibit
